2 compounds from PubChem BioAssay AID1259407 (Chemical Carcinogenesis Research Information System (CCRIS), 2018) can be followed below.

The source made the active and inactive calls. The rule behind the calls is not given here.

The test system of this series is CCRIS mutagenicity, Ames/micronucleus/aberration tests. Put plainly: CCRIS mutagenicity studies.

Turning to `CC(=O)C[C@@H]1CCC(=O)CCC(=O)O[C@H](CC(C)=O)CCC(=O)CCC(=O)O1`, where the note is “Test System: CHINESE HAMSTER V-79, Strain/Indicator: V-79 (HPRT)/6-THIOGUANINE, Metabolic Activation: NONE”, the mutagenic call is “inactive; negative”.

Take `CC(=O)OC(OC(C)=O)c1ccc([N+](=O)[O-])o1`: the mutagenic call reads like this: (Test System: AMES SALMONELLA TYPHIMURIUM, Strain/Indicator: TA98(1,8-DNP6), Metabolic Activation: NONE, Method: STANDARD PLATE) “active; positive”; (Test System: AMES SALMONELLA TYPHIMURIUM, Strain/Indicator: TA98(1,8-DNP6), Metabolic Activation: RAT, LIVER, S-9, 3-METHYLCHOLANTHRENE, Method: STANDARD PLATE) “active; positive”; (Test System: AMES SALMONELLA TYPHIMURIUM, Strain/Indicator: TA98(NR), Metabolic Activation: NONE, Method: STANDARD PLATE) “active; positive”; (Test System: AMES SALMONELLA TYPHIMURIUM, Strain/Indicator: TA98(NR), Metabolic Activation: RAT, LIVER, S-9, 3-METHYLCHOLANTHRENE, Method: STANDARD PLATE) “active; positive”; (Test System: AMES SALMONELLA TYPHIMURIUM, Strain/Indicator: TA98, Metabolic Activation: NONE, Method: STANDARD PLATE) “active; positive”; (Test System: AMES SALMONELLA TYPHIMURIUM, Strain/Indicator: TA98, Metabolic Activation: RAT, LIVER, S-9, 3-METHYLCHOLANTHRENE, Method: STANDARD PLATE) “active; positive”. Also, where the note is “Test System: E. COLI, Strain/Indicator: WP2 UVRA, Metabolic Activation: NONE, Method: SPOT”, the mutagenic call was “active; positive”.
